Data on 22 compounds can be found in patent US20030053950A1, “Individualization of therapy with hyperlipidemia agents” (McGill University, priority 2001, published 2003).

Like-named read-outs stand apart in the source and are kept apart here. Marks after values point to notes of the source that are not given here.

One data set has as its system AAMU-Ab. Briefly: Competitive antigen ELISA, cross-reactivity of AAMU-Ab. The format is binding, rabbit. The note with it: for % Cross-Reaction AAMU-Ab: competitive antigen ELISA, 0 = absence of inhibition or inhibition no higher than 40% at 5 × 10^−3 M. As to the method: (§1) Buffers and water without additives are filtered through millipore filters and kept for 1 week. BSA, antibodies, Tween™ 20 and horse radish peroxidase conjugates are added to these buffers and water just prior to use. Urine samples are usually collected 4 hours after drinking a cup of coffee (instant or brewed with approximately 100 mg of caffeine per cup) and stored at −80° C. The urine samples are diluted 10 times with sodium phosphate buffer (620 mosm, pH 7.50) and are subsequently diluted with water to give concentrations of AAMU and 1X no higher than 3×10^−6 M in the ELISA. All the pipettings are done with an eight-channel pipette, except those of the antibody and sample solutions. Starting with the last well, 100 μL of a carbonate buffer (100 mM, pH 9.6) containing 2.5 μg mL-^1 antibodies are added to each well. After 90 min. at room temperature, the wells are washed three times with […] of TPB: isotonic sodium phosphate buffer (310 mosm, pH 7.50) containing 0.05% Tween™ 20.
(§2) After the initial wash, unoccupied sites are blocked by incubation for 90 min. at room temperature with 100 μL TBP containing 3% BSA. The wells are washed four times with 100 μL TPB. […] The microplate is gently shaken with an orbital shaker at room temperature for 3-4 hours. The wells are washed three times with 100 μL TPB containing 1% BSA and three times with water containing 0.05% Tween™ 20. To the washed plate is added 150 μL of a substrate buffer composed of citric acid (25 mM) and sodium phosphate dibasic buffer (50 mM, pH 5.0) containing 0.06% hydrogen peroxide and 0.04% o-phenylenediamine hydrochloride.
(§3) Buffers and water without additives were filtered through millipore filters and kept for 1 week. BSA, antibodies, Tween™ 20 and horse radish peroxidase conjugates were added to these buffers and water just prior to use. Urine samples were usually collected 4 hours after drinking a cup of coffee (instant or brewed with approximately 100 mg of caffeine per cup) and stored at −80° C. They were diluted 10 times with sodium phosphate buffer (620 mosm, pH 7.50) and were subsequently diluted with water to give concentrations of AAMU and 1X no higher than 3×10^−6 M in the ELISA. All the pipettings were done with an eight-channel pipette, except those of the antibody and sample solutions. Starting with the last well, 100 μL of a carbonate buffer (100 mM, pH 9.6) containing 2.5 μg mL-^1 antibodies was pipetted. After 90 min. at room temperature, the wells were washed three times with 100 μL of TPB: isotonic sodium phosphate buffer (310 mosm, pH 7.50) containing 0.05% Tween™ 20.
(§4) After the initial wash, unoccupied sites were blocked by incubation for 90 min. at room temperature with 100 μL TBP containing 3% BSA. The wells were washed four times with 100 μL TPB. […] The microplate was gently shaken with an orbital shaker at room temperature for 3-4 hours. The wells were washed three times with 100 μL with TPB containing 1% BSA and three times with water containing 0.05% Tween™ 20. To the washed plate was added 150 μL of a substrate buffer composed of citric acid (25 mM) and sodium phosphate dibasic buffer (50 mM, pH 5.0) containing 0.06% hydrogen peroxide and 0.04% o-phenylenediamine hydrochloride. After 20 min. at room temperature with shaking, the reaction was stopped with 50 μL of 2.5 N HCl.
(§5) The cross reactivities of AAMU-Ab and 1X-Ab were tested using a wide variety of caffeine metabolites and structural analogs (Table 2 below).
For orientation: In an ELISA, binding on a coated surface is turned into a signal by an enzyme label.

The next data set deals with 1X-Ab. Nature of the data set: Competitive antigen ELISA, cross-reactivity of 1X-Ab. In kind it is binding, rabbit. The note with it: for % Cross-Reaction 1X-Ab: competitive antigen ELISA, 0 = absence of inhibition or inhibition no higher than 40% at 5 × 10^−3 M. How it is done: as §1, §2, §3, §4, §5
The conditions of data set [1]: cited from earlier work.
The conditions of data set [2]: cited from earlier work. The source holds these as a separate data set.
For data set [3] the following is noted: cited from earlier work. This is another data set of the same source.

Consider `Cn1c(=O)c2c(ncn2C)n(C)c1=O` [1,3,7-Trimethyl Xanthine (Caffeine), 1,3,7-Trimethyl Xanthine], for which the “% Cross-Reaction AAMU-Ab” value with AAMU-Ab is listed as 0%. For the same compound, in the data set with 1X-Ab, the “% Cross-Reaction 1X-Ab” value was determined as 0%.
For the compound `Cn1c(=O)c2[nH]cnc2n(C)c1=O` [1,3-Dimethyl Xanthine (Theophylline), 1,3-Dimethyl Xanthine], the “% Cross-Reaction AAMU-Ab” value in the data set with AAMU-Ab was 0%. Also, the “% Cross-Reaction 1X-Ab” value in the data set with 1X-Ab is given as 0.2%.
On the same counts, the results for `Cn1c(=O)[nH]c2ncn(C)c2c1=O` [1,7-Dimethyl Xanthine (Paraxanthine), 1,7-Dimethyl Xanthine] are 0% and 0.5%.
As to `Cn1c(=O)[nH]c2[nH]c(=O)n(C)c2c1=O` [1,7-Dimethyluric acid], in the data set with AAMU-Ab, the “% Cross-Reaction AAMU-Ab” value came to 0%. Moreover, the “% Cross-Reaction 1X-Ab” value in the data set on 1X-Ab turned out to be 0%.
For `Cn1c(=O)[nH]c2nc[nH]c2c1=O` [1-Methyl Xanthine (1X), 1-Methyl Xanthine], the “% Cross-Reaction AAMU-Ab” value in the data set with AAMU-Ab is recorded as 0%. For the same compound, the “% Cross-Reaction 1X-Ab” value with 1X-Ab was 100%. The IC50 in the data set with 1X-Ab (read-out: concentration required for 50% inhibition in the competitive antigen ELISA, 1X-Ab) amounted to 10 µM.
As for `Cn1c(=O)[nH]c2[nH]c(=O)[nH]c2c1=O` [1-Methyluric acid], the “% Cross-Reaction AAMU-Ab” value with AAMU-Ab was 0%. For the same compound, the “% Cross-Reaction 1X-Ab” value in the data set on 1X-Ab came to 11%.
In the case of `Cn1cnc2c1c(=O)[nH]c(=O)n2C` [3,7-Dimethyl Xanthine (Theobromine), 3,7-Dimethyl Xanthine], the “% Cross-Reaction AAMU-Ab” value in the data set with AAMU-Ab came to 0%. Besides, in the data set with 1X-Ab, the “% Cross-Reaction 1X-Ab” value came to 0%.
On to `Cn1c(=O)[nH]c(=O)c2[nH]cnc21` [3-Methyl Xanthine], for which, in the data set on AAMU-Ab, the “% Cross-Reaction AAMU-Ab” value is 0%. In the data set with 1X-Ab, the “% Cross-Reaction 1X-Ab” value was 0%.
In the case of `CC(=O)Nc1c(N)n(C)c(=O)n(C)c1=O` [5-Acetamino-6-amino-1,3-dimethyluracil], the “% Cross-Reaction AAMU-Ab” value in the data set with AAMU-Ab is listed as 0%. Further, the “% Cross-Reaction 1X-Ab” value in the data set on 1X-Ab is 0%.
With `CC(=O)Nc1c(N)n(C)c(=O)[nH]c1=O` [5-Acetamino-6-amino-1-methyluracil], the “% Cross-Reaction AAMU-Ab” value in the data set with AAMU-Ab stood at 100%. Besides, the IC50 in the data set with AAMU-Ab (read-out: concentration required for 50% inhibition in the competitive antigen ELISA, AAMU-Ab) was 1.5 µM. Besides, the “% Cross-Reaction 1X-Ab” value with 1X-Ab stood at 0%.
Turning to `CC(=O)Nc1c(N)[nH]c(=O)[nH]c1=O` [5-Acetamino-6-amino-uracil], the “% Cross-Reaction AAMU-Ab” value in the data set on AAMU-Ab was determined as 0.6%. In addition, the “% Cross-Reaction 1X-Ab” value in the data set on 1X-Ab stood at 0%.
As to `Cn1cnc2[nH]c(=O)[nH]c(=O)c21` [7-Methyl Xanthine], in the data set on AAMU-Ab, the “% Cross-Reaction AAMU-Ab” value was found to be 0%. In addition, in the data set with 1X-Ab, the “% Cross-Reaction 1X-Ab” value amounted to 0%.
As to `Cc1nc2[nH]c(=O)[nH]c(=O)c2[nH]1` [8-Methyl Xanthine], the “% Cross-Reaction AAMU-Ab” value in the data set on AAMU-Ab is listed as 0%. In addition, the “% Cross-Reaction 1X-Ab” value in the data set on 1X-Ab is on record as 0%.
Take `COc1ccc2c(c1)[C@]13CCCC[C@@H]1[C@H](C2)N(C)CC3` [Dextromethorphan]: the “mean performance ±SE” value in data set [1] (EMs (extensive metabolizers)) is 95±0.5%; in data set [1] (PMs (poor metabolizers)), 86±6%.
Turning to `Nc1nc2nc[nH]c2c(=O)[nH]1` [Guanine], in the data set on AAMU-Ab, the “% Cross-Reaction AAMU-Ab” value is given as 0%. The “% Cross-Reaction 1X-Ab” value with 1X-Ab was determined as 0%.
As for `O=c1[nH]cnc2nc[nH]c12` [Hypoxanthine], in the data set with AAMU-Ab, the “% Cross-Reaction AAMU-Ab” value came out at 0%. Besides, the “% Cross-Reaction 1X-Ab” value in the data set with 1X-Ab stood at 0%.
For `NC(=O)c1cccnc1` [Nicotinamide], the effect on lipoproteins result in data set [2] (doses similar to those of nicotinic acid) is recorded as “does not have a significant effect on lipoproteins”.
With `O=c1cc[nH]c(=O)[nH]1` [Uracil], the “% Cross-Reaction AAMU-Ab” value in the data set with AAMU-Ab is listed as 0%. In addition, the “% Cross-Reaction 1X-Ab” value in the data set on 1X-Ab is on record as 0%.
As to `O=c1[nH]c(=O)c2[nH]c(=O)[nH]c2[nH]1` [Uric acid], in the data set with AAMU-Ab, the “% Cross-Reaction AAMU-Ab” value was 0%. Also, in the data set on 1X-Ab, the “% Cross-Reaction 1X-Ab” value was determined as 0%.
Turning to `O=c1[nH]c(=O)c2[nH]cnc2[nH]1` [Xanthine], the “% Cross-Reaction AAMU-Ab” value in the data set on AAMU-Ab is 0^a %. Also, in the data set on 1X-Ab, the “% Cross-Reaction 1X-Ab” value worked out at 0%.
In the case of `Nc1ccc(S(=O)(=O)c2ccc(N)cc2)cc1` [dapsone], the “adverse reactions to dapsone” value in data set [3] (fast acetylators) was 17%; in data set [3] (slow acetylators) it was 46%.
Regarding `O=C(O)c1cccnc1` [niacin, nicotinic acid], in data set [2] (1000 to 1500 mg per day), the LDL cholesterol reduction entry is “about 15%” and the “reduction of triglyceride levels” value is “up to 30%”. For the same compound, in data set [2] (2000 to 4000 mg per day), the LDL cholesterol-lowering effect was around 25%, the “increase in HDL cholesterol level” value is “up to 30%” and the “reduction of triglyceride levels” value was “up to 50%”. Also, the effect on lipoproteins result in data set [2] (low dosages (<500 mg per day)) is “little predictable effect”.
